Values after ≈ are worked out from the molar mass of the structure shown. Like-named read-outs stand apart in the source and are kept apart here.
Legend:
[1] = test system: Trichophyton mentagrophytes 445; experiment: In vitro antifungal susceptibility testing (broth microdilution); assay type: cell-based; conditions: M38-A for moulds, IC50 value, read-out: MIC TM
[2] = test system: Staphylococcus aureus CCM 4516/08; experiment: In vitro antibacterial susceptibility testing (broth microdilution); conditions: read-out: MIC SA
[3] = test system: Mycobacterium avium MA CNCTC My 330/88; experiment: In vitro antimycobacterial evaluation; assay type: cell-based; conditions: IC90 value
[4] = test system: Staphylococcus epidermidis H 6966/08; experiment: In vitro antibacterial susceptibility testing (broth microdilution); conditions: read-out: MIC SE
[5] = test system: Mycobacterium kansasii MK CNCTC My 235/80; experiment: In vitro antimycobacterial evaluation; assay type: cell-based; conditions: IC90 value
[6] = test system: Enterococcus sp. J 14365/08; experiment: In vitro antibacterial susceptibility testing (broth microdilution); conditions: read-out: MIC EF
[7] = test system: Mycobacterium tuberculosis MTB CNCTC My 331/88; experiment: In vitro antimycobacterial evaluation; assay type: cell-based; conditions: IC90 value
Candida tropicalis 156 = experiment: In vitro antifungal susceptibility testing (broth microdilution); assay type: cell-based; conditions: M27-A2 for yeasts, IC80 value
[8] = Lipophilicity determination by RP-HPLC (capacity factor k / log k); assay type: physicochemical; conditions: C18 column, MeOH 70% / H2O 30%, isocratic
Description: Hydrophobicities (log P/Clog P) of compounds 8 and 9 were calculated using two commercially available programs (ChemOffice Ultra 10.0 and ACD/LogP) and measured by means of RP-HPLC determination of capacity factors k with subsequent calculation of log k. The procedure was performed under isocratic conditions with methanol as an organic modifier in the mobile phase using an end-capped non-polar C18 stationary RP column. The results are shown in Table 1 and illustrated in Figure 1.
A Waters Alliance 2695 XE HPLC separation module and a Waters Photodiode Array Detector 2996 (Waters Corp., Milford, MA, USA) were used. A Symmetry® C18 5 μm, 4.6 × 250 mm, Part No. WAT054275 (Waters Corp., Milford, MA, USA) chromatographic column was used. The HPLC separation process was monitored by Empower™ 2 Chromatography Data Software, Waters 2009 (Waters Corp., Milford, MA, USA). A mixture of MeOH p.a. (70%) and H2O-HPLC – Mili-Q Grade (30%) was used as a mobile phase. The total flow of the column was 1.0 mL/min, injection volume, 30 μL, column temperature, 30 °C and sample temperature, 10 °C. The detection wavelength of 210 nm was chosen. The KI methanolic solution was used for the dead time (tD) determination. Retention times (tR) were measured in minutes. The capacity factors k were calculated using the Empower™ 2 Chromatography Data Software according to formula k = (tR - tD)/tD, where tR is the retention time of the solute, whereas tD denotes the dead time obtained using an unretained analyte. Log k, calculated from the capacity factor k, is used as the lipophilicity index converted to log P scale.

[9] = test system: methicilin resistant Staphylococcus aureus H 5996/08; experiment: In vitro antibacterial susceptibility testing (broth microdilution); conditions: MRSA, read-out: MIC MRSA

Compound	MIC ([1]; 72h) [µM]	MIC ([1]; 120h) [µM]	MIC ([2]; CCM4516, 24 h) [µM]	MIC ([2]; CCM4516, 48 h) [µM]	MIC ([3]; 14h) [µM]	MIC ([3]; 21h) [µM]	MIC ([4]; H6966/08, 24 h) [µM]	MIC ([4]; H6966/08, 48 h) [µM]	MIC ([5]; 14h) [µM]	MIC ([5]; 21h) [µM]	MIC ([6]; SP.J14365/08, 24 h) [µM]	MIC ([6]; SP.J14365/08, 48 h) [µM]	MIC ([7]; 14h) [µM]	MIC ([7]; 21h) [µM]	MIC (Candida tropicalis 156; 24h) [µM]	MIC (Candida tropicalis 156; 48h) [µM]	log k [8]	MIC ([9]; 24 h) [µM]	MIC ([9]; 48 h) [µM]
CC(C)[C@H](NC(=O)c1cc(Cl)ccc1O)C(=O)Nc1ccc(Cl)c(Cl)c1 [8o]	> 125	> 125	> 500	> 500	62.5 (≈ 26 µg/mL)	125 (≈ 52 µg/mL)	> 500	> 500	32 (≈ 13.3 µg/mL)	62.5 (≈ 26 µg/mL)	> 500	> 500	32 (≈ 13.3 µg/mL)	32 (≈ 13.3 µg/mL)	> 125	> 125	0.8623	> 500	> 500
CC(C)[C@@H](NC(=O)c1cc(Cl)ccc1O)C(=O)Nc1ccc(Cl)c(Cl)c1 [8p]	> 125	> 125	> 500	> 500	62.5 (≈ 26 µg/mL)	125 (≈ 52 µg/mL)	> 500	> 500	32 (≈ 13.3 µg/mL)	62.5 (≈ 26 µg/mL)	> 500	> 500	16 (≈ 6.65 µg/mL)	32 (≈ 13.3 µg/mL)	> 125	> 125	0.8614	> 500	> 500
CC(C)[C@@H](NC(=O)c1cc(Cl)ccc1O)C(=O)Nc1ccc(Br)cc1 [8t]	> 125	> 125	> 125	> 125	62.5 (≈ 26.6 µg/mL)	62.5 (≈ 26.6 µg/mL)	> 125	> 125	62.5 (≈ 26.6 µg/mL)	125 (≈ 53.2 µg/mL)	> 125	> 125	62.5 (≈ 26.6 µg/mL)	62.5 (≈ 26.6 µg/mL)	> 125	> 125	0.6646	> 125	> 125
O=C(N[C@H](Cc1ccccc1)C(=O)Nc1ccc(Br)cc1)c1cc(Cl)ccc1O [8v]	500 (≈ 237 µg/mL)	> 500	3.9 (≈ 1.85 µg/mL)	15.6 (≈ 7.4 µg/mL)	250 (≈ 118 µg/mL)	250 (≈ 118 µg/mL)	62.5 (≈ 29.6 µg/mL)	125 (≈ 59.2 µg/mL)	32 (≈ 15.2 µg/mL)	32 (≈ 15.2 µg/mL)	62.5 (≈ 29.6 µg/mL)	62.5 (≈ 29.6 µg/mL)	32 (≈ 15.2 µg/mL)	32 (≈ 15.2 µg/mL)	500 (≈ 237 µg/mL)	> 500	0.7673	7.81 (≈ 3.7 µg/mL)	15.6 (≈ 7.4 µg/mL)
O=C(O)c1cn(C2CC2)c2cc(N3CCNCC3)c(F)cc2c1=O [CPF, ciprofloxacin, reference compound]							250 (≈ 82.8 µg/mL)	250 (≈ 82.8 µg/mL)										500 (≈ 166 µg/mL)	500 (≈ 166 µg/mL)
OC(Cn1cncn1)(Cn1cncn1)c1ccc(F)cc1F [FLU, fluconazole, reference compound]	1.95 (≈ 0.597 µg/mL)	3.91 (≈ 1.2 µg/mL)													0.12 (≈ 0.0368 µg/mL)	> 125			
NNC(=O)c1ccncc1 [INH, isoniazid, reference compound]					> 250	> 250			> 250	> 250			0.5 (≈ 0.0686 µg/mL)	0.5 (≈ 0.0686 µg/mL)					
CC1(C)S[C@@H]2[C@H](NC(=O)Cc3ccccc3)C(=O)N2[C@H]1C(=O)O [PEN, penicillin G, reference compound]			0.24 (≈ 0.0803 µg/mL)	0.24 (≈ 0.0803 µg/mL)			31.6 (≈ 10.6 µg/mL)	125 (≈ 41.8 µg/mL)			7.81 (≈ 2.61 µg/mL)	15.6 (≈ 5.22 µg/mL)						125 (≈ 41.8 µg/mL)	125 (≈ 41.8 µg/mL)

From PMC6259751, “Investigating Spectrum of Biological Activity of 4- and 5-Chloro-2-hydroxy-N-[2-(arylamino)-1-alkyl-2-oxoethyl]benzamides” (Molecules, 2011)
